Reference: US20060089395A1, “Nf-kb activation inhibitors” (priority 2002, published 2006)
Read-outs that look alike come from different tables or passages of the source.

Tested on: NF-κ B
Assay: Inhibitory activity of NF-κ B activation, luciferase reporter assay in HepG2 under TNF-α stimulation
Type: cell-based, human
Conditions: for inhibition at 1 µg/mL / inhibition at 10 µg/mL / inhibition at 0.1 µg/mL: Homo sapiens; for inhibition at 0.1 µg/mL: 0.1 μg/ml, read-out: Inhibitory Ratio of NF-κB Activation (%) 0.1 μg/ml
Method in brief: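 Readout is firefly luciferase luminescence, expressed as inhibition versus compound-free wells. Before this, HepG2 cells carrying a transiently transfected 5×NF-κB-site luciferase plasmid (6–24 h post-transfection) received test compound plus TNF-α (40 ng/ml) for 4 h.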

[1] = 1 μg/mL, HepG2, TNF-α (40 ng/ml), 4 hours, read-out: Inhibitory Ratio of NF-κ B Activation(%) Drug Concentration 1 μg/mL
[2] = 10 μg/mL, HepG2, TNF-α (40 ng/ml), 4 hours, read-out: Inhibitory Ratio of NF-κ B Activation(%) Drug Concentration 10 μg/mL
[3] = 1 μg/mL, HepG2, TNF-α (40 ng/ml), 4 hours
[4] = 10 μg/mL, HepG2, TNF-α (40 ng/ml), 4 hours
[5] = HepG2, 4 h, comparison table, reporter assay
[6] = HepG2, 4 h, 1 μg/ml, comparison table, reporter assay, read-out: Inhibitory Ratio of NF-κB Activation (%) 1 μg/ml
[7] = HepG2, 4 h, 10 μg/ml, comparison table, reporter assay, read-out: Inhibitory Ratio of NF-κB Activation (%) 10 μg/ml

Inhibitory Ratio of NF-κ B Activation(%) Drug Concentration 1 μg/mL [3] | Inhibitory Ratio of NF-κ B Activation(%) Drug Concentration 10 μg/mL [4] | Structure (SMILES) | inhibition at 1 µg/mL [1] | also measured
 |  | CCOC(=O)c1sc(NC(=O)c2cc(-c3cccs3)ccc2O)nc1-c1ccccc1 [Compound No. 230, 2-[2-Hydroxy-5-(2-thienyl)benzoyl]amino-4-phenylthiazole-5-carboxylic acid ethyl ester] | 40.8% | inhibition at 10 µg/mL [2]: 84.8%
 |  | O=C(Nc1nc(-c2cc(C(F)(F)F)cc(C(F)(F)F)c2)cs1)c1cc(Cl)ccc1O [Compound No. 231, 5-Chloro-2-hydroxy-N-{4-[3,5-bis(trifluoromethyl)phenyl]thiazol-2-yl}benzamide] | 95.9% | inhibition at 10 µg/mL [2]: 94.5%
88.2% | 85.4% | CCOC(=O)c1c(NC(=O)c2cc(Cl)ccc2O)sc2c1CCCC2 [Compound No. 232] |  | 
26.6% | 84.7% | O=C(Nc1cc(-c2ccccc2)[nH]n1)c1cc(Br)ccc1O [Compound No. 233] |  | 
 |  | CCc1nc(NC(=O)c2cc(Br)ccc2O)oc1CC [Compound No. 234, 5-Bromo-N-(4,5-diethyloxazol-2-yl)-2-hydroxybenzamide] | 29.1% | inhibition at 10 µg/mL [2]: 63.1%
 | 81.8% | O=C(Nc1nc(-c2ccccc2)c(-c2ccccc2)o1)c1cc(Br)ccc1O [Compound No. 235] |  | 
 |  | O=C(Nc1nc(-c2ccco2)c(-c2ccco2)o1)c1cc(Br)ccc1O [Compound No. 236, 5-Bromo-N-[4,5-bis(furan-2-yl)oxazol-2-yl]-2-hydroxybenzamide] | 21.4% | inhibition at 10 µg/mL [2]: 56%
 |  | O=C(Nc1nnc(C(F)(F)F)s1)c1ccccc1O [Compound No. 237, 2-Hydroxy-N-(5-trifluoromethyl-1,3,4-thiadiazol-2-yl)benzamide] |  | inhibition at 10 µg/mL [2]: 81.9%
26.1% | 90.3% | O=C(Nc1nnc(C(F)(F)F)s1)c1cc(Br)ccc1O [Compound No. 238] |  | 
25.5% | 78.9% | COc1cc(Cl)nc(NC(=O)c2cc(Cl)ccc2O)n1 [Compound No. 241] |  | 
 | 85.7% | O=C(Nc1cnc2ccccc2c1)c1cc(Cl)ccc1O [Compound No. 242] |  | 
84.2% | 95.1% | O=C(Nc1cccc(Br)n1)c1cc(Cl)ccc1O [Compound No. 243] |  | 
 |  | O=C(Nc1cc(C(F)(F)F)cc(C(F)(F)F)c1)c1cccc(-c2ccccc2)c1O [Compound No. 249, N-[3,5-bis(trifluoromethyl)phenyl]-2-hydroxy-3-phenylbenzamide] | 86.6% | inhibition at 10 µg/mL [2]: 90.7%
93.9% | 96.3% | N#Cc1ccc(Oc2ccc(C(F)(F)F)cc2NC(=O)c2cc(Cl)ccc2O)cc1 [Compound No. 252] |  | 
 |  | O=C(Nc1nc(-c2ccc(Cl)cc2Cl)cs1)c1cc(Cl)ccc1O [Compound No. 255, 5-Chloro-2-hydroxy-N-[4-(2,4-dichlorophenyl)thiazol-2-yl]benzamide] | > 99.9% | 
 |  | CC(C)c1cccc(C(=O)Nc2cc(C(F)(F)F)cc(C(F)(F)F)c2)c1O [Compound No. 256, N-[3,5-bis(trifluoromethyl)phenyl]-2-hydroxy-3-isopropylbenzamide] | 92.1% | 
>99.9% |  | Cc1cc(Br)cc(C(=O)Nc2cc(C(F)(F)F)cc(C(F)(F)F)c2)c1O [Compound No. 258] |  | 
>99.9% |  | O=C(Nc1cc(C(F)(F)F)cc(C(F)(F)F)c1)c1cc(Br)cc(-c2ccccc2)c1O [Compound No. 259] |  | 
 |  | O=C(Nc1nc(-c2ccc(Cl)c(Cl)c2)cs1)c1cc(Cl)ccc1O [Compound No. 260, 5-Chloro-2-hydroxy-N-[4-(3,4-dichlorophenyl)thiazol-2-yl]benzamide] | > 99.9% | 

Inhibitory Ratio of NF-κ B Activation(%) Drug Concentration 1 μg/mL [3] | Inhibitory Ratio of NF-κ B Activation(%) Drug Concentration 10 μg/mL [4] | Structure (SMILES) | inhibition at 1 µg/mL [1] | also measured
 |  | O=C(Nc1nc(-c2ccc(C(F)(F)F)cc2)cs1)c1cc(Cl)ccc1O [Compound No. 261, 5-Chloro-2-hydroxy-N-{4-[4-(trifluoromethyl)phenyl]thiazol-2-yl}benzamide] | > 99.9% | 
 |  | O=C(Nc1cc(C(F)(F)F)cc(C(F)(F)F)c1)c1ccc(-c2ccccc2)cc1O [Compound No. 262, N-[3,5-Bis(trifluoromethyl)phenyl]-2-hydroxy-4-phenylbenzamide] | > 99.9% | 
 |  | O=C(Nc1nc(-c2cc(F)ccc2F)cs1)c1cc(Cl)ccc1O [Compound No. 263, 5-Chloro-2-hydroxy-N-[4-(2,5-difluorophenyl)thiazol-2-yl]benzamide] | > 99.9% | 
 |  | COc1ccc(-c2csc(NC(=O)c3cc(Cl)ccc3O)n2)cc1 [Compound No. 264, 5-Chloro-2-hydroxy-N-[4-(4-methoxyphenyl)thiazol-2-yl]benzamide] | > 99.9% | 
 |  | O=C(Nc1nc(-c2cccc(C(F)(F)F)c2)cs1)c1cc(Cl)ccc1O [Compound No. 265, 5-Chloro-2-hydroxy-N-{4-[3-(trifluoromethyl)phenyl]thiazol-2-yl}benzamide] | > 99.9% | 
 |  | O=C(Nc1nc(-c2c(F)c(F)c(F)c(F)c2F)cs1)c1cc(Cl)ccc1O [Compound No. 266, 5-Chloro-2-hydroxy-N-[4-(2,3,4,5,6-pentafluorophenyl)thiazol-2-yl]benzamide] | > 99.9% | 
 |  | CC(=O)Oc1ccccc1C(=O)Nc1cc(C(F)(F)F)cc(C(F)(F)F)c1 [compound 1, 2-acetoxy-N-[3,5-bis(trifluoromethyl)phenyl]benzamide] | 90.9% | inhibition at 10 µg/mL [2]: 97.1%
93.3% | 95.6% | O=C(Nc1cc(C(F)(F)F)cc(C(F)(F)F)c1)c1ccccc1O [compound 2] |  | 
81.5% | 94.3% | O=C(Nc1cc(C(F)(F)F)cc(C(F)(F)F)c1)c1cc(F)ccc1O [compound 3] |  | 
96.5% | 99.2% | CC(=O)Oc1ccc(Cl)cc1C(=O)Nc1cc(C(F)(F)F)cc(C(F)(F)F)c1 [compound 5] |  | 
 |  | N#Cc1ccc(O)c(C(=O)Nc2cc(C(F)(F)F)cc(C(F)(F)F)c2)c1 [compound 9, N-[3,5-Bis(trifluoromethyl)phenyl]-5-cyano-2-hydroxybenzamide] | 92.2% | inhibition at 10 µg/mL [2]: 99.6%
95.8% | 99.4% | Cc1ccc(O)c(C(=O)Nc2cc(C(F)(F)F)cc(C(F)(F)F)c2)c1 [compound 10] |  | 
94.1% | 96.4% | Cc1ccc(C(=O)C(C)(C)C)cc1NC(=O)c1cc(Cl)ccc1O [compound 166] |  | 
14.3% | 92.3% | O=C(Nc1ccc(Cl)nc1)c1cc(Cl)ccc1O [compound 240] |  | 
 |  | O=C(Nc1ccc(Cl)c(Cl)c1)c1cc(Br)ccc1O [drawing 558, reference compound] |  | inhibition at 0.1 µg/mL [5]: 6.8%; inhibition at 1 µg/mL [6]: 88.7%; inhibition at 10 µg/mL [7]: 92.7%
 |  | O=C(Nc1ccc(F)cc1F)c1cc([N+](=O)[O-])ccc1O [drawing 559, reference compound] |  | inhibition at 0.1 µg/mL [5]: -82.9%; inhibition at 1 µg/mL [6]: -63.8%; inhibition at 10 µg/mL [7]: 86.5%
 |  | O=C(Nc1cccc(C(F)(F)F)c1)c1cc(Br)ccc1O [drawing 560, reference compound] |  | inhibition at 0.1 µg/mL [5]: -20.9%; inhibition at 1 µg/mL [6]: 88%; inhibition at 10 µg/mL [7]: 89.6%
 |  | O=C(Nc1ccc(C(F)(F)F)cc1)c1cc(Cl)ccc1O [drawing 561, reference compound] |  | inhibition at 0.1 µg/mL [5]: -35.5%; inhibition at 1 µg/mL [6]: 85.3%; inhibition at 10 µg/mL [7]: 95%
 |  | O=C(Nc1ccccc1C(F)(F)F)c1cc(Cl)ccc1O [drawing 562, reference compound] |  | inhibition at 0.1 µg/mL [5]: -18.4%; inhibition at 1 µg/mL [6]: 41.6%; inhibition at 10 µg/mL [7]: 92.9%

Structure (SMILES) | Inhibitory Ratio of NF-κ B Activation(%) Drug Concentration 1 μg/mL [3] | Inhibitory Ratio of NF-κ B Activation(%) Drug Concentration 10 μg/mL [4] | inhibition at 1 µg/mL [1] | also measured
O=C(Nc1cc(C(F)(F)F)cc(C(F)(F)F)c1)c1cc(S(=O)(=O)Nc2cc(C(F)(F)F)cc(C(F)(F)F)c2)ccc1Cl [Compound No. 247] |  | >99.9% |  | 
O=C(Nc1cc(C(F)(F)F)cc(C(F)(F)F)c1)c1ccc(F)cc1O [Compound No. 250] | 94.2% | 95.4% |  | 
CC(C)c1cc(Br)cc(C(=O)Nc2cc(C(F)(F)F)cc(C(F)(F)F)c2)c1O [Compound No. 257] | >99.9% |  |  | 
Cc1ccc(C(F)(F)F)cc1NC(=O)c1cc(Cl)ccc1O [compound 92] | 93.8% | 97.9% |  | 
